Measured values reported in patent publication US20080044484A1, “Use of polymeric nanoparticles for vaccine delivery” (THE REGENTS OF THE UNIVERSITY OF CALIFORNIA, priority 2004, published 2008).

Legend:
TAP (human) = TAP (human) (UniProt Q03518); assay: cell-based or functional assay
[1] = tested on: K562-A2 cells pulsed with STEAP peptide; assay: In vitro induction of STEAP peptide-specific CTL, LDH-release cytotoxicity assay; settings: for Percent LDH released from K562-A2 pulsed with peptide: K562-A2 pulsed with corresponding STEAP peptide 2 hours at 37° C.; for Percent LDH released from K562-A2 pulsed with peptide / Percent LDH released from K562-A2: CTL specific for the peptide, 4-hour LDH-release assay; for Induction of peptide-specific CTL: in vitro immunization of PBMC; for Percent LDH released from K562-A2: non-pulsed K562-A2 targets
DU145 (HLA-A2−) = assay: LDH-release cytotoxicity assay of STEAP-specific CTL against HLA-A2-negative control cell line; assay type: cell-based, human; settings: CTL specific for the peptide; 4-hour LDH-release assay
Description: (§1) It was tested whether the STEAP-derived peptides can induce potent CTL capable of recognizing and killing prostate cancer cells in vitro. CTL lines selected for their ability to lyse peptide-pulsed target cells were used as effectors in LDH-release cytotoxicity assays against the cancer cell lines. The HLA-A2+ cancer cell line LnCAP was used, with the HLA-A2−negative cancer cell line DU145 as a control (Table 29).

[2] = tested on: K562-A2 cells pulsed with STEAP peptide; assay: Blocking of CTL lysis with antibodies BB7.2 / IVA12, LDH-release assay; assay type: cell-based, human; settings: for Percent LDH released from K562-A2 pulsed +IVA12: anti-HLA class II antibody IVA12 added to peptide-pulsed targets before 4-hour LDH-release assay; for Percent LDH released from K562-A2 pulsed +BB7.2: anti-HLA-A2 antibody BB7.2 added to peptide-pulsed targets before 4-hour LDH-release assay
Description: As an additional control the anti-HLA class II antibody IVA12 was used. With these experiments, it was confirmed that the STEAP-specific CTL can recognize and kill target cells in a class I-restricted fashion (Table 30).

LnCap (HLA-A2+) = assay: LDH-release cytotoxicity assay of STEAP-specific CTL against prostate cancer cell line; assay type: cell-based, human; settings: CTL specific for the peptide; 4-hour LDH-release assay
Description: as §1

T2 cells [3] = assay: 51Cr-release assay, T2 cells loaded or pulsed with signal sequence constructs, at periods after loading; assay type: cell-based, human; settings: loading into the cytosol; days 1-8 after loading
Description: By “loading” of the fusion peptides into the cytosol of T2 cells, cancer cells and dendritic cells is meant use of a technology called “osmotic lysis of pinocytic vesicles.” T2 cells were exposed to hypertonic medium containing the peptide constructs. Pinocytic vesicles form in this medium, and because of their increased internal osmotic pressure, they break in the cytosol when the cells are placed in hypotonic culture medium.
The induction of CTL in human PBMC was monitored in a conventional ^51Cr-labeling release assay. Briefly, peptide-pulsed TAP^−/HLA-A2.1^+ human T2 cells were incubated with 10 μg of HER2/neu peptides or the MART-1 control peptide for 90 min during labeling with ^51Cr. After washing, the target cells were added to serially diluted effectors in 96-well microplates. After a 6-h incubation at 37° C., supernatants were harvested and counted in a gamma counter. Results are expressed as the percentage of specific lysis and determined as follows: [(experimental cpm−spontaneous cpm)/(maximum cpm−spontaneous cpm)]×100.
Peptide-loaded or pulsed T2 cells were tested for their ability to present HER2/neu peptides at different periods of time after loading or pulsing.

[4] = tested on: ICP47-transfected cells MCF7; assay: Functional blockade of TAP by ICP47, 51Cr-release from peptide-loaded cells; assay type: cell-based, human; settings: for Percent 51Cr Released From ICP47-transfected MCF7 cells loaded with the construct: CTL reactive against the corresponding HER2/neu peptide, 3 days after peptide loading, 6-hour assay
Description: Another aspect in these studies was to determine the mechanisms of enhancement of the antigen presentation by the fusion peptides in human tumor cell lines. Therefore, a new test system was developed utilizing the Herpes Simplex virus (HSV) protein ICP47. ICP47 is a cytoplasmic protein, which interferes with antigen presentation by physically associating with TAP within the cell and inhibiting peptide transport across the ER-membrane. By transfecting the ICP47 gene into several cancer cell lines a novel system for screening different fusion peptides for TAP-independent translocation of peptide antigens through the ER-membrane was generated.
The expression of these antigens was detected by ^51Cr-release assays.

T2 cells [5] = assay: IFNγ release by CTL (ELISA) after incubation with peptide-loaded T2 cells; assay type: cell-based, human; settings: CTL elicited with the corresponding HER2/neu peptide, 20 h, 10^5 CTL/well
Description: In interferon gamma-release assays, 10^5 HER2/neu-specific CTL were co-incubated with 10^5 peptide-loaded T2 cells for 20 hours at 37° C. The concentrations of human interferon gamma in co-cultured supernatants were then determined by ELISA.

[6] = tested on: breast cancer cells MDA-MB-231; assay: 51Cr-release assay, MDA-MB-231 cells loaded or pulsed with signal sequence constructs; assay type: cell-based, human; settings: loading; days 1-8 after loading
Description: ^51Cr-release assays were used to test to see if the low HER2/neu-expressing breast cancer cells MDA-MB-231 can be recognized more efficiently by the HER2/neu-specific CTL after loading with the fusion peptides.
The lysis of the tumor cells by the HER2/neu-specific CTL was monitored in a conventional ^51Cr-labeling release assay. Briefly, peptide-loaded tumor cells were added to serially diluted effectors in 96-well microplates. After a 6-h incubation at 37° C., supernatants were harvested and counted in a gamma counter. Results are expressed as the percentage of specific lysis and determined as follows: [(experimental cpm−spontaneous cpm)/(maximum cpm−spontaneous cpm)]×100.
Peptide-loaded breast cancer cells MDA-MB-231 were tested for their ability to present HER2/neu peptides at different periods of time after loading or pulsing.

[7] = tested on: breast cancer cells MDA-MB-231; assay: IFNγ release by CTL (ELISA) after incubation with peptide-loaded MDA-MB-231 cells; assay type: cell-based, human; settings: CTL elicited with the corresponding HER2/neu peptide, 20 h, 10^5 CTL/well
Description: In interferon gamma release assays, 10^5 HER2/neu-specific CTL were co-incubated with 10^5 peptide-loaded tumor cells for 20 hours at 37° C. The concentration of human interferon gamma in co-cultured supernatants was then determined by ELISA.

HLA-A2.1 (human) = assay: cell-based or functional assay

Sequence of TAP (human) (Q03518 whole entry, chain 1 of 2): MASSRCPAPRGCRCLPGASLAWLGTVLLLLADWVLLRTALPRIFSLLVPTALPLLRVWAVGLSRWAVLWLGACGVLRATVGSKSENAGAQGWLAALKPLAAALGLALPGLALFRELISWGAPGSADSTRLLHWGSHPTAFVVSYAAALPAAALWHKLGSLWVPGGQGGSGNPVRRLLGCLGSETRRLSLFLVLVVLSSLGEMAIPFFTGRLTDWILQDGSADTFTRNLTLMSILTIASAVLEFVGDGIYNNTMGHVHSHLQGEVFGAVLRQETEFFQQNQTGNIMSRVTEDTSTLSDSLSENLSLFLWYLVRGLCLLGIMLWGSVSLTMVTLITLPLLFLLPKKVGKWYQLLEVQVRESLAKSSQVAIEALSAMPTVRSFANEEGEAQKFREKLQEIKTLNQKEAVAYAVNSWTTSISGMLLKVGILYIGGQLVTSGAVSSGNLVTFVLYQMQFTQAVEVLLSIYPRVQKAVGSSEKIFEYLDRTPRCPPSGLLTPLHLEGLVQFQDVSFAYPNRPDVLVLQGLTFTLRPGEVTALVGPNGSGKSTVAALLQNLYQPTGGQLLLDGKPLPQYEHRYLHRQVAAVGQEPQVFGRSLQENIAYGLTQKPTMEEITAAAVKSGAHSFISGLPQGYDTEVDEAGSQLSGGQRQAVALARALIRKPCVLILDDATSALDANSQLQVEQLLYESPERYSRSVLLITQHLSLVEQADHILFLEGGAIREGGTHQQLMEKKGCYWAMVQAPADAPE
Sequence of TAP (human) (Q03519 whole entry, chain 2 of 2, further chain): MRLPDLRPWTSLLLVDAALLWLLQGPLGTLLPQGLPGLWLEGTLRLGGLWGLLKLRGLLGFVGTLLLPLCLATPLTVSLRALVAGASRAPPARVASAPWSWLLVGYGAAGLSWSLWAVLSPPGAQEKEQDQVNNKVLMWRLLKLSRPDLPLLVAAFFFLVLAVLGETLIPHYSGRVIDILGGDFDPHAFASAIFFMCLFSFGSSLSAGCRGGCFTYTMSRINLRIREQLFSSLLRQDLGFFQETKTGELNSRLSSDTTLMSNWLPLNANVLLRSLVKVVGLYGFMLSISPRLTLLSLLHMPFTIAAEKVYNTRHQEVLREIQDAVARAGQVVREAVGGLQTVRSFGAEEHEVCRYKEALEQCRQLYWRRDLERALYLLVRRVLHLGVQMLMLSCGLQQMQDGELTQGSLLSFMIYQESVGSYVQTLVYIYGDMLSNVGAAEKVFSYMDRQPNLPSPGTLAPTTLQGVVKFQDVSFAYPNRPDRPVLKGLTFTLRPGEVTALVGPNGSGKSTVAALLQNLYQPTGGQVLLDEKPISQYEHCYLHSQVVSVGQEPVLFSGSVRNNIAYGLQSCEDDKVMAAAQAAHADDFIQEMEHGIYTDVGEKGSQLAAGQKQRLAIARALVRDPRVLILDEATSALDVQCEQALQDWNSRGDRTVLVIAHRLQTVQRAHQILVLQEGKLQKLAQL

Herpes Simplex virus (HSV) protein ICP47 (from UniProt P03170 1-88)
Percent 51Cr released from MCF7-ICP47 (CTL369-377, E:T 20:1; 29 for untransfected MCF7) (percent 51Cr released) (TAP (human)): 3 | Percent 51Cr released from MCF7-ICP47 (CTL369-377, E:T 40:1; 62 for untransfected MCF7) (percent 51Cr released) (TAP (human)): 3 | Percent 51Cr released from MCF7-ICP47 (CTL654-662, E:T 20:1; 31 for untransfected MCF7) (percent 51Cr released) (TAP (human)): 2 | Percent 51Cr released from MCF7-ICP47 (CTL654-662, E:T 40:1; 74 for untransfected MCF7) (percent 51Cr released) (TAP (human)): 4

LLNWAYQQV (listed as Homo sapiens) [STEAP192-200]
Percent LDH released from K562-A2 pulsed with peptide [1]: 56% | Induction of peptide-specific CTL [1]: induced potent peptide-specific CTL | Percent LDH released from K562-A2 [1]: 8% | Induction of peptide-specific CTL in patients with prostate cancer ([1]; number of patients): three out of three | Percent LDH released from DU145 (HLA-A2−) (DU145 (HLA-A2−)): 18% | Percent LDH released from K562-A2 pulsed +IVA12 [2]: 30% | Percent LDH released from K562-A2 pulsed +BB7.2 [2]: 7% | Percent LDH released from LnCap (HLA-A2+) (LnCap (HLA-A2+)): 43%

M A IISAVVGIL A A A A A G (MAIISAVVGILAAAAAG) [HER654-662-IN-AF]
Recognition by CTL of T2 cells loaded with the peptide (51Cr-release) (T2 cells [3]): effective | Restoration of antigen presentation in ICP47-transfected breast cancer cells ([4]; 51Cr-release): able to restore the antigen presentation | Percent 51Cr Released From ICP47-transfected MCF7 cells loaded with the construct ([4]; E:T 20:1): 22% | Percent 51Cr Released From ICP47-transfected MCF7 cells loaded with the construct ([4]; E:T 40:1): 66% | Release of IFNγ by CTL, T2 cells loaded with the peptide (T2 cells [5]; Day 1 after peptide loading): 3321 pg/mL | Release of IFNγ by CTL, T2 cells loaded with the peptide (T2 cells [5]; Day 3 after peptide loading): 2981 pg/mL | Release of IFNγ by CTL, T2 cells loaded with the peptide (T2 cells [5]; Day 5 after peptide loading): 1892 pg/mL | Release of IFNγ by CTL, T2 cells loaded with the peptide (T2 cells [5]; Day 8 after peptide loading): 881 pg/mL | Recognition by CTL of MDA-MB-231 cells loaded with the peptide (51Cr-release) [6]: effective | Release of IFNγ by CTL, MDA-MB-231 cells loaded with the peptide ([7]; Day 1 after peptide loading): 3321 pg/mL | Release of IFNγ by CTL, MDA-MB-231 cells loaded with the peptide ([7]; Day 3 after peptide loading): 2994 pg/mL | Release of IFNγ by CTL, MDA-MB-231 cells loaded with the peptide ([7]; Day 5 after peptide loading): 1933 pg/mL | Release of IFNγ by CTL, MDA-MB-231 cells loaded with the peptide ([7]; Day 8 after peptide loading): 899 pg/mL

YLPGVIAAV [STEAP130-138 - 9V]
Percent LDH released from K562-A2 pulsed with peptide [1]: 53% | Induction of peptide-specific CTL [1]: induced potent peptide-specific CTL | Percent LDH released from K562-A2 [1]: 1% | Percent LDH released from DU145 (HLA-A2−) (DU145 (HLA-A2−)): −2% | Percent LDH released from K562-A2 pulsed +IVA12 [2]: 47% | Percent LDH released from K562-A2 pulsed +BB7.2 [2]: 1% | Percent LDH released from LnCap (HLA-A2+) (LnCap (HLA-A2+)): 68%

FLWGVIAAV [STEAP130-138 - 1F/3W/9V]
Percent LDH released from K562-A2 pulsed with peptide [1]: 74% | Induction of peptide-specific CTL [1]: induced potent peptide-specific CTL | Percent LDH released from K562-A2 [1]: 1% | Percent LDH released from DU145 (HLA-A2−) (DU145 (HLA-A2−)): 1% | Percent LDH released from K562-A2 pulsed +IVA12 [2]: 75% | Percent LDH released from K562-A2 pulsed +BB7.2 [2]: 1% | Percent LDH released from LnCap (HLA-A2+) (LnCap (HLA-A2+)): 84%

anti-HLA-A2 antibody BB7.2
Percent LDH released from peptide-pulsed K562-A2 +BB7.2 (CTL specific for STEAP130-138 -1F/3W/9V; 74 without antibody) (percent LDH released) (HLA-A2.1 (human)): 1 | Percent LDH released from peptide-pulsed K562-A2 +BB7.2 (CTL specific for STEAP130-138 -1F; 75 without antibody) (percent LDH released) (HLA-A2.1 (human)): 2 | Percent LDH released from peptide-pulsed K562-A2 +BB7.2 (CTL specific for STEAP130-138 -3W; 63 without antibody) (percent LDH released) (HLA-A2.1 (human)): 5 | Percent LDH released from peptide-pulsed K562-A2 +BB7.2 (CTL specific for STEAP130-138 -9V; 53 without antibody) (percent LDH released) (HLA-A2.1 (human)): 1 | Percent LDH released from peptide-pulsed K562-A2 +BB7.2 (CTL specific for STEAP130-138; 63 without antibody) (percent LDH released) (HLA-A2.1 (human)): 2 | Percent LDH released from peptide-pulsed K562-A2 +BB7.2 (CTL specific for STEAP192-200; 56 without antibody) (percent LDH released) (HLA-A2.1 (human)): 7

MA HLYQGCQVV AAAAAG (MAHLYQGCQVVAAAAAG) [HER48-56-IN-AF]
Recognition by CTL of T2 cells loaded with the peptide (51Cr-release) (T2 cells [3]): effective | Release of IFNγ by CTL, T2 cells loaded with the peptide (T2 cells [5]; Day 1 after peptide loading): 3488 pg/mL | Release of IFNγ by CTL, T2 cells loaded with the peptide (T2 cells [5]; Day 3 after peptide loading): 1229 pg/mL | Release of IFNγ by CTL, T2 cells loaded with the peptide (T2 cells [5]; Day 5 after peptide loading): 1010 pg/mL | Release of IFNγ by CTL, T2 cells loaded with the peptide (T2 cells [5]; Day 8 after peptide loading): 718 pg/mL

YLPGVIAAI (listed as Homo sapiens) [STEAP130-138]
Percent LDH released from K562-A2 pulsed with peptide [1]: 63% | Induction of peptide-specific CTL [1]: induced potent peptide-specific CTL | Percent LDH released from K562-A2 [1]: 1% | Percent LDH released from DU145 (HLA-A2−) (DU145 (HLA-A2−)): −1% | Percent LDH released from K562-A2 pulsed +IVA12 [2]: 37% | Percent LDH released from K562-A2 pulsed +BB7.2 [2]: 2% | Percent LDH released from LnCap (HLA-A2+) (LnCap (HLA-A2+)): 53%
